PubChem BioAssay AID2060910 (Molecular Pharmacology Branch, DTP, NCI, 2025)

System: 242566-281-R-J2-PDC complex spheroid viability
Test: Anticancer human tumor 242566-281-R-J2-PDC patient-derived pancreatic carcinoma cell line growth inhibition [RAS]
Settings: for IC50: curve of first compound; for viability, T/C: stronger effect = lower value
Procedure, shortened: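 Tumour cells grown as complex spheroids with HUVEC endothelial cells and mesenchymal stem cells, treated with RAS pathway inhibitor combinations. Each agent spans half-log steps from near clinical Cmax, or 10 microM where Cmax is unknown.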
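Further: spheroids exposed to compound for 7 days before readout.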
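Wherever viability, T/C is given: 100% = DMSO vehicle control wells.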

## CCN1CCN(Cc2ccc(Nc3ncc(F)c(-c4cc(F)c5nc(C)n(C(C)C)c5c4)n3)nc2)CC1 + C#Cc1c(F)ccc2cc(O)cc(-c3ncc4c(N5CC6CCC(C5)N6)nc(OCC56CCCN5CC(F)C6)nc4c3F)c12
Second compound 0.0316 µM
  IC50: > 1000 nM
Second compound 0.1 µM
  IC50: > 1000 nM
Second compound 0.316 µM
  IC50: > 1000 nM
Second compound 1 µM
  IC50: 3.16 nM
Second compound 3.16 µM
  IC50: < 3.16 nM
Second compound 10 µM
  IC50: < 3.16 nM
Second compound 0.0316 µM, first compound 0.00316 µM
  viability, T/C: 110%
Second compound 0.0316 µM, first compound 0.01 µM
  viability, T/C: 108%
Second compound 0.0316 µM, first compound 0.0316 µM
  viability, T/C: 85%
Second compound 0.0316 µM, first compound 0.1 µM
  viability, T/C: 61.7%
Second compound 0.0316 µM, first compound 0.316 µM
  viability, T/C: 84.9%
Second compound 0.0316 µM, first compound 1 µM
  viability, T/C: 99%
Second compound 0.1 µM, first compound 0.00316 µM
  viability, T/C: 95%
Second compound 0.1 µM, first compound 0.01 µM
  viability, T/C: 81.1%
Second compound 0.1 µM, first compound 0.0316 µM
  viability, T/C: 77.5%
Second compound 0.1 µM, first compound 0.1 µM
  viability, T/C: 56.5%
Second compound 0.1 µM, first compound 0.316 µM
  viability, T/C: 76%
Second compound 0.1 µM, first compound 1 µM
  viability, T/C: 85.2%
Second compound 0.316 µM, first compound 0.00316 µM
  viability, T/C: 79.9%
Second compound 0.316 µM, first compound 0.01 µM
  viability, T/C: 72%
Second compound 0.316 µM, first compound 0.0316 µM
  viability, T/C: 46.7%
Second compound 0.316 µM, first compound 0.1 µM
  viability, T/C: 51.9%
Second compound 0.316 µM, first compound 0.316 µM
  viability, T/C: 72%
Second compound 0.316 µM, first compound 1 µM
  viability, T/C: 87.3%
Second compound 1 µM, first compound 0.00316 µM
  viability, T/C: 64.5%
Second compound 1 µM, first compound 0.01 µM
  viability, T/C: 62.1%
Second compound 1 µM, first compound 0.0316 µM
  viability, T/C: 50.5%
Second compound 1 µM, first compound 0.1 µM
  viability, T/C: 43.5%
Second compound 1 µM, first compound 0.316 µM
  viability, T/C: 63.3%
Second compound 1 µM, first compound 1 µM
  viability, T/C: 77.1%
Second compound 3.16 µM, first compound 0.00316 µM
  viability, T/C: 56.6%
Second compound 3.16 µM, first compound 0.01 µM
  viability, T/C: 47.2%
Second compound 3.16 µM, first compound 0.0316 µM
  viability, T/C: 31.6%
Second compound 3.16 µM, first compound 0.1 µM
  viability, T/C: 37.3%
Second compound 3.16 µM, first compound 0.316 µM
  viability, T/C: 58.5%
Second compound 3.16 µM, first compound 1 µM
  viability, T/C: 72.4%
Second compound 10 µM, first compound 0.00316 µM
  viability, T/C: 54.3%
Second compound 10 µM, first compound 0.01 µM
  viability, T/C: 48.2%
Second compound 10 µM, first compound 0.0316 µM
  viability, T/C: 40.1%
Second compound 10 µM, first compound 0.1 µM
  viability, T/C: 37.6%
Second compound 10 µM, first compound 0.316 µM
  viability, T/C: 51.7%
Second compound 10 µM, first compound 1 µM
  viability, T/C: 63.1%

## CC1(O)CCCC1n1c(=O)c(C(F)F)cc2cnc(NC3CCN(S(C)(=O)=O)CC3)nc21 (centres undefined) + CCn1c(-c2cc(N3CCN(C)CC3)cnc2C(C)OC)c2c3cc(ccc31)-c1csc(n1)CC(NC(=O)C1CC1C)C(=O)N1CCCC(N1)C(=O)OCC(C)(C)C2
Second compound 0.000949 µM
  IC50: 6350 nM
Second compound 0.003 µM
  IC50: 4930 nM
Second compound 0.00949 µM
  IC50: 31.6 nM
Second compound 0.03 µM
  IC50: < 31.6 nM
Second compound 0.0949 µM
  IC50: < 31.6 nM
Second compound 0.3 µM
  IC50: < 31.6 nM
Second compound 0.000949 µM, first compound 0.0316 µM
  viability, T/C: 85.7%
Second compound 0.000949 µM, first compound 0.1 µM
  viability, T/C: 84%
Second compound 0.000949 µM, first compound 0.316 µM
  viability, T/C: 72.8%
Second compound 0.000949 µM, first compound 1 µM
  viability, T/C: 98.9%
Second compound 0.000949 µM, first compound 3.16 µM
  viability, T/C: 98.1%
Second compound 0.000949 µM, first compound 10 µM
  viability, T/C: 25.2%
Second compound 0.003 µM, first compound 0.0316 µM
  viability, T/C: 73%
Second compound 0.003 µM, first compound 0.1 µM
  viability, T/C: 58.6%
Second compound 0.003 µM, first compound 0.316 µM
  viability, T/C: 64.7%
Second compound 0.003 µM, first compound 1 µM
  viability, T/C: 73.3%
Second compound 0.003 µM, first compound 3.16 µM
  viability, T/C: 82.5%
Second compound 0.003 µM, first compound 10 µM
  viability, T/C: 17.2%
Second compound 0.00949 µM, first compound 0.0316 µM
  viability, T/C: 43.7%
Second compound 0.00949 µM, first compound 0.1 µM
  viability, T/C: 42.2%
Second compound 0.00949 µM, first compound 0.316 µM
  viability, T/C: 49.5%
Second compound 0.00949 µM, first compound 1 µM
  viability, T/C: 51.4%
Second compound 0.00949 µM, first compound 3.16 µM
  viability, T/C: 53.2%
Second compound 0.00949 µM, first compound 10 µM
  viability, T/C: 14.7%
Second compound 0.03 µM, first compound 0.0316 µM
  viability, T/C: 25.7%
Second compound 0.03 µM, first compound 0.1 µM
  viability, T/C: 28.7%
Second compound 0.03 µM, first compound 0.316 µM
  viability, T/C: 30.8%
Second compound 0.03 µM, first compound 1 µM
  viability, T/C: 35.6%
Second compound 0.03 µM, first compound 3.16 µM
  viability, T/C: 30.7%
Second compound 0.03 µM, first compound 10 µM
  viability, T/C: 18.1%
Second compound 0.0949 µM, first compound 0.0316 µM
  viability, T/C: 23.1%
Second compound 0.0949 µM, first compound 0.1 µM
  viability, T/C: 23.8%
Second compound 0.0949 µM, first compound 0.316 µM
  viability, T/C: 22%
Second compound 0.0949 µM, first compound 1 µM
  viability, T/C: 28.7%
Second compound 0.0949 µM, first compound 3.16 µM
  viability, T/C: 22.5%
Second compound 0.0949 µM, first compound 10 µM
  viability, T/C: 15.1%
Second compound 0.3 µM, first compound 0.0316 µM
  viability, T/C: 18%
Second compound 0.3 µM, first compound 0.1 µM
  viability, T/C: 18.6%
Second compound 0.3 µM, first compound 0.316 µM
  viability, T/C: 20.5%
Second compound 0.3 µM, first compound 1 µM
  viability, T/C: 23.6%
Second compound 0.3 µM, first compound 3.16 µM
  viability, T/C: 26.8%
Second compound 0.3 µM, first compound 10 µM
  viability, T/C: 14.1%
